The results in this text go back to PubChem BioAssay (NCI).

Molecules are shown by their SMILES.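 Briefly, cells in 96-well plates were exposed to five compound concentrations for 48 h, and endpoints were estimated by linear interpolation. Here, GI50 denotes the concentration required for 50% inhibition of growth. At the TGI there is no net growth.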

Among the test systems are RXF 393 renal; SW-620 colon; 786-0 renal; HOP-62 NSCLC; HCT-116 colon; SK-MEL-28 melanoma; SF-268 CNS; MDA-N; U251 CNS; COLO 205 colon; HT29 colon; K-562 leukemia; EKVX NSCLC; M14 melanoma; MALME-3M melanoma; SF-539 CNS; OVCAR-3 ovarian.
Assay in all cases: NCI anticancer screen, dose series, 48 h

For the compound `Cc1cnc(/N=c2\sc(C)cn2-c2ncc(C)s2)s1`, the TGI in the assay with RXF 393 renal, in the assay with SW-620 colon, in the assay on 786-0 renal, in the assay on HOP-62 NSCLC, in the assay on HCT-116 colon and in the assay on SK-MEL-28 melanoma was more than 100 µM in each case. The TGI with SF-268 CNS, with MDA-N, in the assay with U251 CNS, with COLO 205 colon, in the assay with HT29 colon and in the assay with K-562 leukemia was more than 100 µM each time. The TGI in the assay on EKVX NSCLC, in the assay with M14 melanoma, with MALME-3M melanoma, with SF-539 CNS and with OVCAR-3 ovarian was more than 100 µM each time.
On to `Cc1ccc2cc3c(ccc4ccccc43)c3c2c1CC3`, for which the TGI in the assay with RXF 393 renal, with SW-620 colon, with 786-0 renal, with HOP-62 NSCLC, in the assay on HCT-116 colon and with SK-MEL-28 melanoma was more than 100 µM throughout. In addition, the TGI in the assay on SF-268 CNS, in the assay with MDA-N, in the assay on U251 CNS, in the assay with COLO 205 colon, in the assay on HT29 colon and in the assay on K-562 leukemia was more than 100 µM throughout. Further, the TGI with EKVX NSCLC, in the assay with M14 melanoma, with MALME-3M melanoma, in the assay on SF-539 CNS and with OVCAR-3 ovarian was more than 100 µM in each case. In addition, the GI50 in the assay on MALME-3M melanoma was more than 100 µM.
For `O=C(N/N=C/c1ccc([N+](=O)[O-])cc1)c1cccc2nc3ccccc3nc12`, the TGI was more than 80.7 µM in the assay with RXF 393 renal; more than 100 µM in the assay on SW-620 colon; more than 100 µM with 786-0 renal; 22.7 µM in the assay with HOP-62 NSCLC; more than 100 µM with HCT-116 colon; more than 100 µM in the assay with SK-MEL-28 melanoma. Further, the TGI in the assay on SF-268 CNS, with MDA-N, in the assay with U251 CNS, with COLO 205 colon, in the assay with HT29 colon and in the assay with K-562 leukemia was more than 100 µM throughout. For the same compound, the TGI with EKVX NSCLC is more than 100 µM; in the assay on M14 melanoma, more than 100 µM; in the assay on MALME-3M melanoma it was more than 100 µM; with SF-539 CNS it was more than 65.6 µM; in the assay with OVCAR-3 ovarian, more than 100 µM.
As for `COc1cc(NCc2ccc3nc(-c4ccccc4)c(N)nc3c2)cc(OC)c1OC`, the TGI in the assay with RXF 393 renal was 58.9 µM; in the assay on SW-620 colon, more than 100 µM; in the assay with 786-0 renal, more than 100 µM; in the assay on HOP-62 NSCLC, more than 100 µM; with HCT-116 colon, 33.7 µM; in the assay with SK-MEL-28 melanoma, 69 µM. Moreover, the TGI in the assay on SF-268 CNS was 98.6 µM; with MDA-N it was more than 100 µM; in the assay on U251 CNS, more than 100 µM; in the assay with COLO 205 colon it was 38.6 µM; in the assay on HT29 colon it was more than 100 µM; with K-562 leukemia, more than 100 µM. Besides, the TGI in the assay with EKVX NSCLC was more than 100 µM; with M14 melanoma, 37.8 µM; in the assay with MALME-3M melanoma, 65.9 µM; with SF-539 CNS it was 91.4 µM; in the assay with OVCAR-3 ovarian it was 82.7 µM.
`OCC1OC(NCCNCCNC2OC(CO)C(O)C(O)C2O)C(O)C(O)C1O` (configuration not stated): the TGI in the assay on RXF 393 renal, with SW-620 colon, in the assay with 786-0 renal, with HOP-62 NSCLC, in the assay with HCT-116 colon and in the assay on SK-MEL-28 melanoma was more than 100 µM throughout. In addition, the TGI in the assay with SF-268 CNS, in the assay on MDA-N, in the assay with U251 CNS, in the assay with COLO 205 colon, in the assay on HT29 colon and in the assay on K-562 leukemia was more than 100 µM in each case. The TGI with EKVX NSCLC, in the assay with M14 melanoma, with MALME-3M melanoma, in the assay on SF-539 CNS and with OVCAR-3 ovarian was more than 100 µM in each case.
For `CCOP1(=O)C=C(Sc2ccc([N+](=O)[O-])cc2[N+](=O)[O-])C(C)(C)O1` (configuration not stated), the TGI is 31.8 µM in the assay with RXF 393 renal; more than 52.2 µM in the assay on SW-620 colon; 23.6 µM in the assay on 786-0 renal; 56.2 µM in the assay on HOP-62 NSCLC; 18.8 µM with HCT-116 colon; 32 µM in the assay on SK-MEL-28 melanoma. Besides, the TGI in the assay with SF-268 CNS was 49.5 µM; in the assay on MDA-N it was 17.6 µM; in the assay on U251 CNS, 30.3 µM; in the assay with COLO 205 colon, 23.9 µM; in the assay on HT29 colon, more than 75.9 µM; in the assay with K-562 leukemia, more than 20 µM. The TGI in the assay with EKVX NSCLC worked out at 18.8 µM; with M14 melanoma, 24.5 µM; with MALME-3M melanoma, 31.4 µM; in the assay on SF-539 CNS, 27.5 µM; in the assay with OVCAR-3 ovarian, 25.9 µM.
For `O=C(Cn1cc(F)c(=O)[nH]c1=O)C12CC3CC(CC(C3)C1)C2`, the TGI in the assay on RXF 393 renal, in the assay with SW-620 colon, in the assay with 786-0 renal, in the assay with HOP-62 NSCLC, in the assay with HCT-116 colon and with SK-MEL-28 melanoma was more than 100 µM in each case. Moreover, the TGI in the assay on SF-268 CNS, in the assay on MDA-N, in the assay on U251 CNS, in the assay with COLO 205 colon, with HT29 colon and in the assay on K-562 leukemia was more than 100 µM throughout. In addition, the TGI in the assay on EKVX NSCLC, in the assay on M14 melanoma, with MALME-3M melanoma, in the assay on SF-539 CNS and in the assay with OVCAR-3 ovarian was more than 100 µM in each case.
With `O=C(c1ccco1)n1c2ccc(Br)cc2c2nc3ccccc3nc21`, the TGI was more than 100 µM in the assay on RXF 393 renal; more than 100 µM in the assay on SW-620 colon; 51 µM with 786-0 renal; 87 µM with HOP-62 NSCLC; more than 100 µM with HCT-116 colon; more than 100 µM with SK-MEL-28 melanoma. Further, the TGI in the assay with SF-268 CNS, in the assay with MDA-N, with U251 CNS, in the assay with COLO 205 colon, in the assay with HT29 colon and in the assay on K-562 leukemia was more than 100 µM in each case. The TGI in the assay on EKVX NSCLC, with M14 melanoma, with MALME-3M melanoma, in the assay on SF-539 CNS and in the assay with OVCAR-3 ovarian was more than 100 µM throughout.
